Data reported in patent US10508085B2, “Compounds and methods for IDO and TDO modulation, and indications therefor” (Plexxikon Inc., priority 2016, dated 2019).
Read-outs that look alike come from different tables or passages of the source.

Assays:
[1] = target: T1, Human Tryptophan 2,3-dioxygenase (TDO) (Homo sapiens, UniProt P48775); assay: Human TDO enzymatic assay (kynurenine level); assay type: biochemical; settings: 1 nM TDO, 350 μM L-Trp; geometric mean; read-out: TDO GMean: IC50 (μM) (Biochemical Assay)
T1 construct: His tag (N); made in house; host or cells: E. coli
Procedure, shortened: (§1)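 N-terminally His-tagged enzymes expressed in E. coli were run in 50 mM sodium phosphate pH 6.5 with 10 mM ascorbate, catalase and Tween 20. IDO: 6 nM enzyme, 10 μM L-Trp, 5 μM methylene blue, 20 min RT. TDO: 1 nM enzyme, 350 μM L-Trp, 0.4 μM methylene blue, 70 min RT.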

[2] = target: T2, human TDO (TDO-expressing HEK293 cells) (Homo sapiens, UniProt P48775); assay: Cell based kynurenine assay, TDO-expressing HEK293 cell clones; settings: TDO-expressing HEK293 cells, geometric mean, read-out: HEK293 TDO Kynurenine GMean IC50 (μM) (Cellular Assay)
T2 construct: expressed in transfected cells
Description: (§2) Determine Inhibitor Activity Against IDO or TDO in Cell Based Kynurenine Assay
(§3) IDO1-expressing or TDO-expressing HEK293 cell clones are generated upon stable transfection of plasmids expressing human IDO or human TDO under the control of CMV promoter. Cells are selected in DMEM media supplemented with 10% fetal bovine serum and 1 mg/ml G418 at 37° C. in a humidified incubator supplied with 5% CO2. The assays are performed as follows.
(§4) Cells were seeded in a 96 well plate in 50 μL of culture media at a density of 2.5×10^4 per well. Serial dilutions of compounds (in total volume of 50 μL culture media) are added into cells. 4 wells containing 0.2% DMSO treated cells serve as high controls and 4 wells containing media only with 0.2% DMSO serve as low controls. After 24 hours of incubation, the supernatant was transferred to a 384 well reaction plate and the kynurenine level determined. The percentage inhibition at individual concentrations relative to high and low controls is calculated. The data is analyzed by using nonlinear regression to generate IC50 values.

[3] = target: T3, Human Indoleamine 2,3-dioxygenase (IDO) (Homo sapiens, UniProt P14902); assay: Human IDO enzymatic assay (kynurenine level); assay type: biochemical; settings: 6 nM IDO, 10 μM L-Trp; geometric mean; read-out: IDO1 GMean: IC50 (μM) (Biochemical Assay)
T3 construct: His tag (N); made in house; host or cells: E. coli
Procedure, shortened: as §1

[4] = target: T4, human IDO (IDO1-expressing HEK293 cells) (Homo sapiens, UniProt P14902); assay: Cell based kynurenine assay, IDO1-expressing HEK293 cell clones; settings: IDO1-expressing HEK293 cells, geometric mean, read-out: HEK293 IDO1 Kynurenine GMean IC50 (μM) (Cellular Assay)
T4 construct: expressed in transfected cells
Description: as §2, §3, §4

Measured: IC50

T4 sequence (P14902 whole entry): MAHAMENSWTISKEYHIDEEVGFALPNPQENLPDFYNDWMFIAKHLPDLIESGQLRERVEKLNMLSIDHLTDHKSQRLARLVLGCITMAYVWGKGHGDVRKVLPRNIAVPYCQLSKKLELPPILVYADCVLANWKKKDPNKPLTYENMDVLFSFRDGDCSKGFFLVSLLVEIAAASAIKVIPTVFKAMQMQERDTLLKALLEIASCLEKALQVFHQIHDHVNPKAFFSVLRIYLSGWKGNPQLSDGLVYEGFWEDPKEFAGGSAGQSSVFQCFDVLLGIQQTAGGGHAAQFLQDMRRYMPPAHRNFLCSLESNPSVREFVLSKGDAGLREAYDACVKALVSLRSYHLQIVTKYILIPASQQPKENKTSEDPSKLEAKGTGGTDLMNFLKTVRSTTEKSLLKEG
T3 sequence (P14902 whole entry): as above
T1 sequence (P48775 whole entry): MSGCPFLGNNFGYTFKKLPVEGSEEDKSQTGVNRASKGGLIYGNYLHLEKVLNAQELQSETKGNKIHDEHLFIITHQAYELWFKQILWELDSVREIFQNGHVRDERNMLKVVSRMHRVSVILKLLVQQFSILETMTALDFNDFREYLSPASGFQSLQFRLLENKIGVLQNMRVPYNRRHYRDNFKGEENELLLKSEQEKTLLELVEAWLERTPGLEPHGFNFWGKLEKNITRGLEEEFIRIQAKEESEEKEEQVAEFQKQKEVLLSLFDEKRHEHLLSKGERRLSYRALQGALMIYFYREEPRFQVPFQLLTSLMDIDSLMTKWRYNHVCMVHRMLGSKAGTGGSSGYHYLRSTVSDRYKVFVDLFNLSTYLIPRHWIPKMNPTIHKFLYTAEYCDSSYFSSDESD
T2 sequence (P48775 whole entry): as above

CC(C)(C1CCN(C(=O)NCc2ccccc2)CC1)C(O)c1cc(Cl)cc2cn[nH]c12 (stereo not drawn) [Compound P-0386, N-benzyl-4-(1-(5-chloro-1H-indazol-7-yl)-1-hydroxy-2-methylpropan-2-yl)piperidine-1-carboxamide]
0.0001 to 10 µM: [1] | [2]; 24 hours incubation | [3] | [4]; 24 hours incubation

CC(C)(C)OC(=O)N1CCC(C(C)(C)[C@@H](O)c2c(F)c(Cl)cc3cn[nH]c23)CC1 [Compound P-0384, tert-butyl (R)-4-(1-(5-chloro-6-fluoro-1H-indazol-7-yl)-1-hydroxy-2-methylpropan-2-yl)piperidine-1-carboxylate]
> 10 µM: [2]; 24 hours incubation | [4]; 24 hours incubation
0.0001 to 10 µM: [1] | [3]

OC(c1cc(Cl)cc2[nH]ncc12)C12CCC(CC1)CC2 (stereo not drawn) [Compound P-0146, bicyclo[2.2.2]octan-1-yl(6-chloro-1H-indazol-4-yl)methanol]
> 10 µM: [4]; 24 hours incubation
0.0001 to 10 µM: [1] | [2]; 24 hours incubation | [3]

CC(=O)N1CCC(C2(C(O)c3cc(Cl)cc4cn[nH]c34)CC2)CC1 (stereo not drawn) [Compound P-0130, 1-(4-(1-((5-chloro-1H-indazol-7-yl)(hydroxy)methyl)cyclopropyl)piperidin-1-yl)ethan-l-one]
0.0001 to 10 µM: [1] | [2]; 24 hours incubation | [3] | [4]; 24 hours incubation

CS(=O)(=O)N1CCC(C(F)(F)C(O)c2c3c(cc4cn[nH]c24)CC3)CC1 (stereo not drawn) [Compound P-0296, 1-(5,6-dihydro-1H-cyclobuta[f]indazol-7-yl)-2,2-difluoro-2-(1-(methylsulfonyl)piperidin-4-yl)ethan-1-ol]
> 10 µM: [2]; 24 hours incubation
0.0001 to 10 µM: [1] | [3] | [4]; 24 hours incubation

CC(C)(C1CCN(S(C)(=O)=O)CC1)C(O)c1c(F)ccc2cn[nH]c12 (stereo not drawn) [Compound P-0284, 1-(6-fluoro-1H-indazol-7-yl)-2-methyl-2-(1-(methylsulfonyl)piperidin-4-yl)propan-1-ol]
0.0001 to 10 µM: [1] | [2]; 24 hours incubation | [3] | [4]; 24 hours incubation

CC(C)(C1CCN(C(=O)CO)CC1)[C@H](O)c1cc(Cl)cc2cn[nH]c12 [Compound P-0535, (S)-1-(4-(1-(5-chloro-1H-indazol-7-yl)-1-hydroxy-2-methylpropan-2-yl)piperidin-1-yl)-2-hydroxyethan-1-one]
0.0001 to 10 µM: [1] | [2]; 24 hours | [3] | [4]; 24 hours

CN(C)CCC(=O)N1CCC(C(C)(C)C(O)c2cc(Cl)cc3cn[nH]c23)CC1 (stereo not drawn) [Compound P-0456, 1-(4-(1-(5-chloro-1H-indazol-7-yl)-1-hydroxy-2-methylpropan-2-yl)piperidin-1-yl)-3-(dimethylamino) propan-1-one]
0.0001 to 10 µM: [1] | [2]; 24 hours | [3] | [4]; 24 hours

CC(C)(C1CCN(C(=O)c2ccccc2F)CC1)C(O)c1cc(Cl)cc2cn[nH]c12 (stereo not drawn) [Compound P-0364, (4-(1-(5-chloro-1H-indazol-7-yl)-1-hydroxy-2-methylpropan-2-yl)piperidin-1-yl)(2-fluorophenyl) methanone]
0.0001 to 10 µM: [1] | [2]; 24 hours incubation | [3] | [4]; 24 hours incubation

O=S(=O)(NC1CC(O)(c2cc(Cl)cc3cn[nH]c23)C1)c1ccccc1 (stereo not drawn) [Compound P-0044, N-(3-(5-chloro-1H-indazol-7-yl)-3-hydroxycyclobutyl)benzenesulfonamide]
10 to 100 µM: [1]
100 to 200 µM: [3]
> 10 µM: [2]; 24 hours incubation | [4]; 24 hours incubation

OC1(c2cc(Cl)cc3cn[nH]c23)CC2(C1)[C@H]1C[C@@H]3C[C@@H](C[C@H]2C3)C1 (stereo partly drawn) [Compound P-0100, (1R,5S)-3′-(5-chloro-1H-indazol-7-yl)spiro[adamantane-2,1′-cyclobutan]-3′-ol]
0.0001 to 10 µM: [1] | [2]; 24 hours incubation | [3] | [4]; 24 hours incubation

CC(C)(C1CCN(C(=O)C2CC2)CC1)[C@@H](O)c1cc(Cl)cc2cn[nH]c12 [Compound P-0424, (R)-(4-(1-(5-chloro-1H-indazol-7-yl)-1-hydroxy-2-methylpropan-2-yl)piperidin-1-yl)(cyclopropyl) methanone]
0.0001 to 10 µM: [1] | [2]; 24 hours | [3]
> 10 µM: [4]; 24 hours

OC(c1cc(Cl)cc2cn[nH]c12)C1(C2CCOCC2)CC1 (stereo not drawn) [Compound P-0221, (5-chloro-1H-indazol-7-yl)(1-(tetrahydro-2H-pyran-4-yl)cyclopropyl)methanol]
0.0001 to 10 µM: [1] | [2]; 24 hours incubation | [3] | [4]; 24 hours incubation

CC1(C(=O)N2CCC(C(C)(C)C(O)c3cc(Cl)cc4cn[nH]c34)CC2)CC1 (stereo not drawn) [Compound P-0457, (4-(1-(5-chloro-1H-indazol-7-yl)-1-hydroxy-2-methylpropan-2-yl)piperidin-1-yl)(1-methylcyclopropyl) methanone]
0.0001 to 10 µM: [1] | [2]; 24 hours | [3] | [4]; 24 hours

CNC(=O)N1CCC(C(C)(C)[C@H](O)c2c(F)c(Cl)cc3cn[nH]c23)CC1 [Compound P-0508, (S)-4-(1-(5-chloro-6-fluoro-1H-indazol-7-yl)-1-hydroxy-2-methylpropan-2-yl)-N-methylpiperidine-1-carboxamide]
0.0001 to 10 µM: [1] | [2]; 24 hours | [3] | [4]; 24 hours

CC(C)(C(O)c1cc(Cl)cc2cn[nH]c12)[C@H]1C[C@H]2CC[C@@H](C1)N2S(C)(=O)=O (stereo partly drawn) [Compound P-0271, 1-(5-chloro-1H-indazol-7-yl)-2-methyl-2-((1R,3r,5S)-8-(methylsulfonyl)-8-azabicyclo[3.2.1]octan-3-yl)propan-1-ol]
0.0001 to 10 µM: [1] | [2]; 24 hours incubation | [3] | [4]; 24 hours incubation

CC(C)(C1CCN(C(=O)CC#N)CC1)[C@H](O)c1c(F)c(Cl)cc2cn[nH]c12 [Compound P-0505, (S)-3-(4-(1-(5-chloro-6-fluoro-1H-indazol-7-yl)-1-hydroxy-2-methylpropan-2-yl)piperidin-1-yl)-3-oxopropanenitrile]
0.0001 to 10 µM: [1] | [2]; 24 hours | [3] | [4]; 24 hours

OC(c1c(F)c(Cl)cc2cn[nH]c12)C12CCC(C(F)(F)F)(CC1)CC2 (stereo not drawn) [Compound P-0301, (5-chloro-6-fluoro-1H-indazol-7-yl)(4-(trifluoromethyl)bicyclo[2.2.2]octan-1-yl)methanol]
0.0001 to 10 µM: [1] | [2]; 24 hours incubation | [3] | [4]; 24 hours incubation

CC(C)(C1CCN(C(=O)CC#N)CC1)[C@H](O)c1cc(Cl)cc2cn[nH]c12 [Compound P-0534, (S)-3-(4-(1-(5-chloro-1H-indazol-7-yl)-1-hydroxy-2-methylpropan-2-yl)piperidin-1-yl)-3-oxopropanenitrile]
0.0001 to 10 µM: [1] | [2]; 24 hours | [3] | [4]; 24 hours

CC(C)(C1CCN(C(=O)Nc2ccnc(N3CCOCC3)c2)CC1)C(O)c1cc(Cl)cc2cn[nH]c12 (stereo not drawn) [Compound P-0390, 4-(1-(5-chloro-1H-indazol-7-yl)-1-hydroxy-2-methylpropan-2-yl)-N-(2-morpholinopyridin-4-yl)piperidine-1-carboxamide]
0.0001 to 10 µM: [1] | [2]; 24 hours incubation | [3] | [4]; 24 hours incubation

OCC1CCC(C(O)c2cc(Cl)cc3cn[nH]c23)CC1 (stereo not drawn) [Compound P-0197, (5-chloro-1H-indazol-7-yl)(4-(hydroxymethyl)cyclohexyl)methanol]
0.0001 to 10 µM: [1] | [2]; 24 hours incubation | [3] | [4]; 24 hours incubation
